Laboratory results: patent US20230127202A1, “LONG-TERM PROBIOTIC BACTERIAL STORAGE AT AMBIENT TEMPERATURE” (CORNELL UNIVERSITY, priority 2021, published 2023)

Columns and labels:
LGG isolates = test: Antimicrobial susceptibility (MIC) test, Sensititre COMPGP1F gram-positive panel, CLSI interpretation; type: cell-based, Lactobacillus rhamnosus GG; settings: all LGG isolates after heat treatment and storage
Protocol: Antimicrobial susceptibility or minimum inhibitory concentration (MIC) test was performed using the Sensititre® system COMPGP1F gram-positive systemic panel. The test used the Clinical and Laboratory Standards Institute (CLSI) guidelines for interpretation of MIC values. All of the isolates were examined for susceptibility to 23 antimicrobial agents included in the gram-positive panel of the National Antimicrobial Resistance Monitoring System (NARMS), including amikacin, ampicillin, augmentin, cefazolin, cefovecin, cefpodoxime, cephalothin, chloramphenicol, clindamycin, doxycycline, enrofloxacin, erythromycin, gentamicin, imipenem, marbofloxacin, minocycline, nitrofurantoin, oxacillin + 2% NaCl, penicillin, pradofloxacin, rifampin, tetracycline, trim/sulfa.

[1] = system: Lactobacillus rhamnosus GG (LGG, ATCC 53103); test: Bacterial survivability test (colony count) of LGG stored in food-grade oils at room temperature; type: physicochemical; settings: under all conditions
Protocol: PBS at pH 7.4 was used as a control for each temperature. Each individual vial containing 20 mL of oil was heated to reach the desired temperature and the temperature equilibrated for 15-20 minutes. To each heated vial, 0.05 g of LGG powder was added. For prebiotic treatment, 0.05 g of inulin were added before the addition of LGG. The vial containing the oil-bacteria mixture was held at temperature for 1 minute with gentle stirring. Finally, the vial was taken out of the oil bath and cooled to room temperature over a range of 25 to 45 minutes depending on the heating treatments. As control samples, the LGG powder was added to each type of oil and PBS (pH 7.4) with the samples not heated. FIG. 1A illustrates the experimental set up for the heat treatment.
To prevent bacterial growth during storage of probiotics in aqueous solutions, oil was used as a barrier to water penetration and thus serves to preserve and prevent spoilage of the probiotic products. Before the storage of bacteria in oil, the LGG concentration in each type of oil was quantified and recorded as the initial concentration. […] The control medium was 20 mL of PBS at pH 7.4. For the control sample, 0.05 g of the bacteria were added to PBS and, after mixing, cultured on MRS agar plates. […] The survivability of the bacteria was assessed at specific time points over a year using the colony count technique. […]

`Cc1nnc(SCC2=C(C(=O)O)N3C(=O)[C@@H](NC(=O)Cn4cnnn4)[C@H]3SC2)s1` [cefazolin] was tested, and the “antimicrobial sensitivity of the isolates (CLSI interpretation of MIC)” value (shortened to “antimicrobial sensitivity”) (LGG isolates) was “resistance”.
With oxacillin [oxacillin + 2% NaCl] the “antimicrobial sensitivity” value (LGG isolates) was “susceptible”.
For `CC1(C)S[C@@H]2[C@H](NC(=O)[C@H](N)c3ccccc3)C(=O)N2[C@H]1C(=O)O` [ampicillin], the “antimicrobial sensitivity” value (LGG isolates) was “intermediate sensitivity”.
inulin was tested, and the “effect on survival rates of the bacteria” value [1] was “reduced the survival rates”.
In the case of penicillin, the “antimicrobial sensitivity” value (LGG isolates) is reported as “resistance”.
`CC[C@H]1OC(=O)[C@H](C)[C@@H](O[C@H]2C[C@@](C)(OC)[C@@H](O)[C@H](C)O2)[C@H](C)[C@@H](O[C@@H]2O[C@H](C)C[C@H](N(C)C)[C@H]2O)[C@](C)(O)C[C@@H](C)C(=O)[C@H](C)[C@@H](O)[C@]1(C)O` [erythromycin] was tested, and the “antimicrobial sensitivity” value (LGG isolates) was “susceptible”.
augmentin was tested, and the “antimicrobial sensitivity” value (LGG isolates) was “susceptible”.
